# Article PMC12040169 (PLOS Biology, 2025)
# Experiment: in vitro
# Details: human, hela cells, % viability
row,SMILES,"viability at 28.5 h, 10 µM"
1,Nc1ncnc2c1nc(SCc1ccccc1)n2Cc1ccccc1 [CBK288181],90.9%
2,O=C(O)CC1Cn2ncc(-c3ccccc3)c2NC1=O (centres unmarked) [CBK288187],89.5%
3,O=c1c2c([nH]c3nc(COc4ccccc4)nn13)CCC2 [CBK288188],98%
4,Nc1cc(=O)[nH]c(=O)n1CCc1c[nH]c2ccccc12 [CBK288190],98.1%
5,Cc1ccc(-c2c(N3CCCC3)n[nH]c2C2CC2)cc1 [CBK288192],97.8%
6,Cc1nc(=O)c(-c2ccccc2)c(C)n1-c1ccc2cn[nH]c2c1 [CBK288193],100%
7,Nc1nc2n(c1C(=O)c1ccc(Cl)cc1)CCC2 [CBK288194],92.5%
8,COc1ccc(Cl)cc1Nc1ncnc(N)n1 [CBK288195],100%
9,N#Cc1c2c(c3nncn3c1Nc1ccccc1)CCCC2 [CBK288197],97.7%
10,CC1(C)Cc2c(cnn2-c2ccc(F)cc2)C(N)C1 (centres unmarked) [CBK288200],91.9%
11,COc1ccccc1OCC(=O)N1CCNC1=O [CBK288201],93.8%
12,O=C(Cc1ccccc1)Nc1ccc2[nH]ncc2c1 [CBK288211],104%
13,CCCc1cc(C(=O)Nc2nccs2)cs1 [CBK288212],83.9%
14,O=C(Nc1ncccc1Cl)c1ccc(F)cc1 [CBK288215],93.1%
15,Nc1nc2n(n1)C1(CCCCC1)C1=C(CCCC1)N2 [CBK288219],86.7%
16,CC(C)(Oc1ccc(Cl)cc1)C(=O)Nc1nnc[nH]1 [CBK288220],102%
17,Cc1ccc2c(c1C)NC(=O)CC2c1ccc(F)cc1 (centres unmarked) [CBK288221],101%
18,Cc1ccc(Nc2nc(N)nc(-c3cc4ccccc4o3)n2)cc1 [CBK288222],105%
19,CCCCN1CC(C(=O)Nc2nccs2)CC1=O (centres unmarked) [CBK288224],95.3%
20,CSc1ccccc1C(=O)Nc1nccs1 [CBK288225],88.7%
21,Cc1nc(N2CCCC2)ncc1-c1cc(O)nc(N2CCCCC2)n1 [CBK288226],92.3%
22,Oc1ccc(-c2oncc2-c2ccccc2)c(O)c1 [CBK288228],96.2%
23,Cc1cccc(NC(=O)c2n[nH]c3ccccc23)c1 [CBK288231],84.6%
24,O=C1NN=C(c2ccccc2)CC1c1c[nH]c2ccccc12 (centres unmarked) [CBK288235],104%
25,CN(C)c1nc(N)nc(COc2ccccc2F)n1 [CBK288236],105%

row,SMILES,"viability at 28.5 h, 10 µM"
1,O=C1CC(c2ccccc2)c2c(c3ccccc3[nH]c2=O)O1 (centres unmarked) [CBK288237],112%
2,COc1cccc(-c2n[nH]c3c2C(c2cccnc2)NC3=O)c1 (centres unmarked) [CBK288238],86.3%
3,COc1ccc(Oc2c(C)n[nH]c2-c2ccc(O)cc2O)cc1 [CBK288239],96%
4,Cn1nccc1C(=O)N1CCN(c2ncccn2)CC1 [CBK288240],90.7%
5,Cc1n[nH]c(C)c1C12CC3CC(CC(CC(=O)O)(C3)C1)C2 [CBK288241],92.2%
6,O=C(NCc1ccncc1)C1CC1c1ccccc1 (centres unmarked) [CBK288242],107%
7,Cc1cc(NC(=O)Nc2cccc(Cl)c2C)no1 [CBK288245],87.3%
8,Cc1cnc(NC(=O)C(C)Oc2ccccc2)s1 (centres unmarked) [CBK288250],108%
9,Cc1csc(NC(=O)Cc2ccccc2F)n1 [CBK288252],84.3%
10,O=C1c2ccccc2NC(c2cnc3ccccc3n2)N1O (centres unmarked) [CBK288357],84.7%
11,COc1ccccc1-c1cc(C(F)F)nc(S)c1C#N [CBK288358],88.8%
12,CCOc1cc(/C=N/O)c(Br)cc1O [CBK288359],87.4%
13,S=c1nccc(N2CCC(Cc3ccccc3)CC2)[nH]1 [CBK288361],112%
14,CCCOc1ccc(-c2cc(C(=O)NO)n[nH]2)cc1C [CBK288362],61.3%
15,O=c1cc(CO)oc(CN2CCCCCC2)c1O [CBK288363],97.7%
16,Fc1ccc(-n2c(C3CC3)n[nH]c2=S)cc1Cl [CBK288364],96.7%
17,OCCCCn1c(-c2cccnc2)n[nH]c1=S [CBK288365],88.6%
18,O=C(NCCCN1CCOCC1)/C(=N\O)c1ccccn1 [CBK288366],94.1%
19,NCCCc1c(-c2ccc(Cl)cc2Cl)[nH][nH]c1=O [CBK288367],86.8%
20,CNC(=S)Nc1ncn(Cc2cccc(F)c2)n1 [CBK288368],106%
21,NC(=S)N1N=C2CCCCC2C1c1ccccc1 (centres unmarked) [CBK288371],84.2%
22,CC(C)CCC1(CN2CCCC2=O)C(=O)NC(=O)NC1=O [CBK288372],90.5%
23,CCN(CC)CCNC(=O)c1ccc(/C=N/O)nc1 [CBK288375],100%
24,O=C1c2ccccc2NC(c2ccccc2F)N1O (centres unmarked) [CBK288377],93.4%
25,N#Cc1cc2c([nH]c1=S)CCN(Cc1ccccc1)C2 [CBK288378],90.3%

row,SMILES,"viability at 28.5 h, 10 µM"
1,COc1ccc(Cl)cc1-n1c(-c2ccc3ccccc3n2)n[nH]c1=S [CBK288382],95.4%
2,CC(=O)N1CCN(Cc2oc(C)cc(=O)c2O)CC1 [CBK288383],91.6%
3,Oc1ccccc1-c1n[nH]c(=S)n1-c1ccc(OC(F)(F)F)cc1 [CBK288384],85.9%
4,COc1cccc(NC(=O)c2cc3ccccc3o/c2=N\O)c1 [CBK288387],86%
5,CCOc1ccc(Cc2nnc(S)n2C2CC2)cc1OCC [CBK288388],66.4%
6,Cc1cccc(NC(=O)c2ccc3n[nH]c(=S)n3c2)c1 [CBK288389],88%
7,CC1(C)CC(=O)C(C(=S)Nc2ccccc2)=C(O)C1 [CBK288395],95.3%
8,Cc1ccc(C(=O)O)cc1NC(=S)NC1CC1 [CBK288397],94.4%
9,O=C1CNC(=S)N1c1cccc(C(F)(F)F)c1 [CBK288398],104%
10,O=C(Nc1ccccc1)N(O)CC(O)COc1ccccc1 (centres unmarked) [CBK288399],90.7%
11,O=c1cc(CO)oc(CN2CCSCC2)c1O [CBK288404],89%
12,O=C(/C=N/O)Nc1cc(C(F)(F)F)ccc1Cl [CBK288405],107%
13,CN(C)c1ccc(-c2[nH][nH]c(=O)c2CCCN)cc1 [CBK288406],105%
14,CCN(CC)CCNC(=O)/C(=N\O)c1ccccc1 [CBK288408],106%
15,Cn1c(=O)c2c(nc(S)n2CCCc2ccccc2)n(C)c1=O [CBK288411],105%
16,Sc1nnc(C2CCCC2)n1CC1CCCO1 (centres unmarked) [CBK288413],107%
17,CCc1ccccc1NC(=S)Nc1cccc(C)n1 [CBK288415],103%
18,O=C(NCc1cccnc1)/C(=N\O)c1ccccc1 [CBK288416],102%
19,CNC(=S)NCc1nc(-c2ccc(C)cc2)no1 [CBK288418],97.3%
20,Cn1c(=O)c2c(=S)[nH]c(-c3ccccc3)nc2n(C)c1=O [CBK288422],103%
21,COCc1nnc(S)n1-c1cccc(OC)c1 [CBK288424],87.7%
22,S=C(Nc1nc2c(s1)CCCC2)NC1CC1 [CBK288425],90.1%
23,O=C1c2ccccc2NC(c2cccc(O)c2)N1O (centres unmarked) [CBK288426],98.2%
24,O=C(NCc1ccccc1)/C(=N\O)c1ccccc1 [CBK288427],91.9%
25,CC1CN(C)C(c2ccccc2)C(C)C12NC(=O)N=C2O (centres unmarked) [CBK288428],88.1%

row,SMILES,"viability at 28.5 h, 10 µM"
1,Sc1nnc(-c2cccc(Br)c2)o1 [CBK288432],101%
2,NC(=S)N1N=C(c2ccccc2)CC1c1ccccc1 (centres unmarked) [CBK288435],95.6%
3,COc1cccc(-c2cc3c(=S)[nH]ccn3n2)c1 [CBK288437],88%
4,COc1ccc(-c2cc3n[nH]c(=O)n3c(C)n2)cc1 [CBK288439],91.1%
5,Cc1cc(-c2c(C)n(-c3ccccc3)[nH]c2=O)n2ncnc2n1 [CBK288441],89.4%
6,O=C1CCCC2=C1C(c1ccccc1O)c1c([nH][nH]c1=O)N2 (centres unmarked) [CBK288442],90.2%
7,Cc1ccc(-c2n[nH]c(=O)o2)cc1Br [CBK288443],85.9%
8,O=C(O)CCCCCNC(=S)Nc1cccc(Cl)c1 [CBK288446],88.1%
9,COc1ccc(-c2[nH]c(=S)ncc2-c2ccccc2)c(O)c1 [CBK288447],91.5%
10,CC1(C)N=C(c2ccc(Cl)cc2Cl)C(=S)N1 [CBK288449],88.3%
11,CC(=O)NC(=S)Nc1ccc(Oc2ccccc2)cc1 [CBK288454],86.6%
12,O=C1NC(=O)C(c2ccccc2)(c2ccccn2)N1 (centres unmarked) [CBK288455],97%
13,COc1ccc(CCNC(=O)C(N)=O)cc1OC [CBK288457],90.9%
14,O=c1[nH]nc2c(S(=O)(=O)N3CCCC3)cccn12 [CBK288460],85.9%
15,Cc1cc(N2C(=O)NS(=O)(=O)c3cccnc32)ccc1F [CBK288461],90.5%
16,NS(=O)(=O)c1ccc(CCNCC2CCCCC2)cc1 [CBK288467],92.5%
17,O=C1/C(=N\O)c2cc(Cl)ccc2N1Cc1ccccc1 [CBK288468],91.5%
18,CCOc1ccc(-c2ccc(C#N)c(=S)[nH]2)cc1 [CBK288470],88.2%
19,Cc1ccccc1C(=O)NC(=S)NCCN1CCOCC1 [CBK288475],94.5%
20,COc1ccccc1CNc1ccc(S(N)(=O)=O)cc1 [CBK288476],92.7%
21,CC(C)(C)OC(=O)N1CCC2(CC1)N=C(c1ccccc1)C(=S)N2 [CBK288478],112%
22,O=c1[nH]nc2cc(NCc3ccc(Cl)cc3)ncn12 [CBK288479],114%
23,CN(CCCNC(=O)/C=N/O)CCCC(C)(C)C [CBK288480],110%
24,O=C1/C(=N\O)c2ccccc2N1Cc1ccccc1 [CBK288484],99.7%

# Same assay, conditions: human, hela cells, % viability, bulk resorufin, single well
row,SMILES,"viability at 28.5 h, 10 µM"
1,O=C1NC(=O)C(CCc2ccncc2)(c2ccccc2)C(=O)N1 [CBK288431],96.9%
2,NC(=O)C(=O)c1cn(Cc2ccccc2)c2ccccc12 [CBK288473],96.2%
